Experimental findings from patent EP4803159A2, “CONJUGATE OF SALICYLIC ACID AND PEPTIDE” (Caregen Co., Ltd., priority 2017, dated 2018) are described below.

The test system of data set [1] is HaCaT keratinocyte cell line. Kind of data set: Keratinocyte growth, sulforhodamine B (SRB) colorimetric assay. The class given is cell-based. Conditions: 50 µM, 72 hours, serum-free medium, SRB absorbance at 560 nm, FIG. 2B. The procedure:
To analyze growth factor-like efficacy and inhibitory efficacy of the compounds synthesized in Example <1-2>, a sulforhodamine B (SRB Sigma) colorimetric assay was performed using a HaCaT keratinocyte cell line (Korean Cell Line Bank) in accordance with a method of Rizzino, et al. (Cancer Res. 48:4266(1988))
HaCaT keratinocyte cell line was seeded in a 96-well plate at a density of 3,000 cells per well, and then cultured in Dulbecco's modified Eagle's medium (DMEM, Gibco, USA) containing 10% fetal bovine serum (FBS, Sigma) for 24 hours under conditions of 37°C and 5% CO2. The cultured cell line was detached from the bottom of the culture plate using a 1% trypsin solution, and only cell precipitate was collected by centrifugation. The cell precipitate was suspended in DMEM without FBS, and then cultured for 24 hours under conditions of 37°C and 5% CO2. 24 hours later, the medium was replaced by the same medium from which serum was completely removed. A blank sample in which the cell precipitate was dissolved sterile in 10% DMSO was prepared for standardization. Each of the compound 1 to the compound 4 (50 µM) of the present disclosure, salicylic acid (50 µM), and EGF (100 nM) as a positive control were treated. Incubation was carried out under the same conditions as above for 72 hours. […] Absorbance at UV 560 nm was measured to determine cell viability.

Data set [2] relates to TNF-a, IL-6, IL-1b, and COX-2. The data set is described as follows: Anti-inflammatory effect, Propionibacterium acnes-induced inflammatory cytokine mRNA expression in keratinocytes (RT-PCR). Conditions: keratinocyte, 50 µg/ml Propionibacterium acnes, 50 µM compound, 24 hours; FIG. 8. The class given is cell-based. The procedure: Anti-inflammatory effects of the compounds of the present disclosure were examined using Propionibacterium acnes. To this end, keratinocyte was seeded in a 6-well plate at a density of 300,000 cells per well, and then incubated in a DMEM culture medium (Gibco, USA) containing 10% FBS for 24 hours under conditions of 37°C and 5% CO2. After replacing the medium by a fresh medium, the cells were treated with 50 µg/ml of Propionibacterium acnes, and then the treated Propionibacterium acnes was treated with each 50 µM of the compound 1 and the compound 3 of the present disclosure and salicylic acid used as the positive control, followed by incubation for 24 hours under the same conditions as above. RNA was isolated from the cells, and cDNA was synthesized using a cDNA synthesis kit (Intron, Korea). PCR premix (Intron, Korea) and primers for each of TNF-a, IL-6, IL-1b, and COX-2 in Table 3 below were used to perform PCR. mRNA levels of TNF-a, IL-6, IL-1b and COX-2 were determined by 5% agarose gel electrophoresis.

For data set [3] the following is noted: distilled water, concentration of 10 mg/ml; FIG. 1.

As to `O=C(O)c1ccccc1O` [salicylic acid, 2-hydroxybenzoic acid], in data set [1], the growth of keratinocytes result is on record as “inhibited growth of keratinocytes due to toxicity”. Besides, the “expression of inflammatory cytokines induced by Propionibacterium acnes” value in data set [2] is given as “hardly inhibited expression”. The solubility in water entry in data set [3] is reported as “hardly dissolved in water”.
